Data reported in the NIST ThermoML archive (doi:10.1021/je400486p).
± gives the expanded uncertainty stated by the source.

Key:
[1] = 101.3 kPa, Liquid; for viscosity: Concentric cylinders viscometry; for mass density: Vibrating tube method
[2] = refractive index (Na D-line) (dimensionless); conditions: 101.33 kPa, Liquid, Standard Abbe refractometry
[3] = xn = mol fraction of the nth substance listed; conditions: 101.3 kPa, Liquid, x1 = 1; for viscosity: Concentric cylinders viscometry; for mass density: Vibrating tube method
[4] = refractive index (Na D-line) (dimensionless); xn = mol fraction of the nth substance listed; conditions: 101.3 kPa, Liquid, Standard Abbe refractometry, x1 = 1

## CCC(C)O (configuration not stated) [butan-2-ol]
[1]; 288.15 K
  viscosity: 4.29 ± 0.047 mPa·s
  mass density: 810.654 ± 0.14 kg/m3
[1]; 293.15 K
  viscosity: 3.576 ± 0.039 mPa·s
  mass density: 806.62 ± 0.14 kg/m3
[1]; 298.15 K
  viscosity: 2.954 ± 0.033 mPa·s
  mass density: 802.502 ± 0.14 kg/m3
[1]; 303.15 K
  viscosity: 2.469 ± 0.028 mPa·s
  mass density: 798.302 ± 0.14 kg/m3
[1]; 308.15 K
  viscosity: 2.08 ± 0.024 mPa·s
  mass density: 794.003 ± 0.14 kg/m3
[1]; 313.15 K
  viscosity: 1.766 ± 0.02 mPa·s
  mass density: 789.609 ± 0.14 kg/m3
[1]; 318.15 K
  viscosity: 1.512 ± 0.017 mPa·s
  mass density: 785.109 ± 0.15 kg/m3
[1]; 323.15 K
  viscosity: 1.303 ± 0.015 mPa·s
  mass density: 780.499 ± 0.15 kg/m3
[2]; 288.15 K
  refractive index: 1.39959 ± 0.00033
[2]; 293.15 K
  refractive index: 1.39748 ± 0.00033
[2]; 298.15 K
  refractive index: 1.39534 ± 0.00033
[2]; 303.15 K
  refractive index: 1.39314 ± 0.00033
[2]; 308.15 K
  refractive index: 1.39086 ± 0.00033
[2]; 313.15 K
  refractive index: 1.38851 ± 0.00033
[2]; 318.15 K
  refractive index: 1.38617 ± 0.00033
[2]; 323.15 K
  refractive index: 1.38372 ± 0.00033

## CCC(C)O (configuration not stated) [butan-2-ol] + CN1CCCC1=O
[3]; 288.15 K
  viscosity: 4.29 ± 0.051 mPa·s
  mass density: 810.654 ± 0.14 kg/m3
[3]; 293.15 K
  viscosity: 3.576 ± 0.042 mPa·s
  mass density: 806.62 ± 0.14 kg/m3
[3]; 298.15 K
  viscosity: 2.954 ± 0.035 mPa·s
  mass density: 802.502 ± 0.14 kg/m3
[3]; 303.15 K
  viscosity: 2.469 ± 0.03 mPa·s
  mass density: 798.302 ± 0.14 kg/m3
[3]; 308.15 K
  viscosity: 2.08 ± 0.025 mPa·s
  mass density: 794.003 ± 0.14 kg/m3
[3]; 313.15 K
  viscosity: 1.766 ± 0.022 mPa·s
  mass density: 789.609 ± 0.14 kg/m3
[3]; 318.15 K
  viscosity: 1.512 ± 0.019 mPa·s
  mass density: 785.109 ± 0.15 kg/m3
[3]; 323.15 K
  viscosity: 1.303 ± 0.016 mPa·s
  mass density: 780.499 ± 0.15 kg/m3
[4]; 288.15 K
  refractive index: 1.39959 ± 0.00033
[4]; 293.15 K
  refractive index: 1.39748 ± 0.00033
[4]; 298.15 K
  refractive index: 1.39534 ± 0.00033
[4]; 303.15 K
  refractive index: 1.39314 ± 0.00033
[4]; 308.15 K
  refractive index: 1.39086 ± 0.00033
[4]; 313.15 K
  refractive index: 1.38851 ± 0.00033
[4]; 318.15 K
  refractive index: 1.38617 ± 0.00033
[4]; 323.15 K
  refractive index: 1.38372 ± 0.00033

## CCC(C)O (configuration not stated) [butan-2-ol] + COCCOCCOCCOCCOC
[3]; 288.15 K
  viscosity: 4.29 ± 0.047 mPa·s
  mass density: 810.654 ± 0.14 kg/m3
[3]; 293.15 K
  viscosity: 3.576 ± 0.039 mPa·s
  mass density: 806.62 ± 0.14 kg/m3
[3]; 298.15 K
  viscosity: 2.954 ± 0.033 mPa·s
  mass density: 802.502 ± 0.14 kg/m3
[3]; 303.15 K
  viscosity: 2.469 ± 0.028 mPa·s
  mass density: 798.302 ± 0.14 kg/m3
[3]; 308.15 K
  viscosity: 2.08 ± 0.024 mPa·s
  mass density: 794.003 ± 0.14 kg/m3
[3]; 313.15 K
  viscosity: 1.766 ± 0.02 mPa·s
  mass density: 789.609 ± 0.14 kg/m3
[3]; 318.15 K
  viscosity: 1.512 ± 0.017 mPa·s
  mass density: 785.109 ± 0.15 kg/m3
[3]; 323.15 K
  viscosity: 1.303 ± 0.015 mPa·s
  mass density: 780.499 ± 0.15 kg/m3
[4]; 288.15 K
  refractive index: 1.39959 ± 0.00033
[4]; 293.15 K
  refractive index: 1.39748 ± 0.00033
[4]; 298.15 K
  refractive index: 1.39534 ± 0.00033
[4]; 303.15 K
  refractive index: 1.39314 ± 0.00033
[4]; 308.15 K
  refractive index: 1.39086 ± 0.00033
[4]; 313.15 K
  refractive index: 1.38851 ± 0.00033
[4]; 318.15 K
  refractive index: 1.38617 ± 0.00033
[4]; 323.15 K
  refractive index: 1.38372 ± 0.00033
